Structures can show the parent of a compound that is named as a salt. Where two headings read alike, the source gives them in different places.
Molecular target: HIV-1 protease (Human immunodeficiency virus type 1 group M subtype B, UniProt P04585)
Test: biochemical
Conditions: for inhibition at 0.123 µM: read-out: HIV-1 Protease % Inhib, dose 0.123 uM
In short: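 Biotinylated, FITC-labeled peptide substrate (20 μl of 0.2 μM) incubated with HIV-1 protease (10 μl of 0.1 μM) and compound in 0.1 M sodium acetate pH 5.5, 1.0 M NaCl, 0.05% NP-40, 1 h, room temperature, dark. Streptavidin beads then capture uncleaved substrate; filtered labeled product read by fluorescence, giving percent inhibition.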

[1] = dose 1.100 uM, read-out: HIV-1 Protease % Inhib
[2] = dose 3.300 uM, read-out: HIV-1 Protease % Inhib
[3] = dose 10.000 uM, read-out: HIV-1 Protease % Inhib
[4] = dose 30.000 uM, read-out: HIV-1 Protease % Inhib
[5] = read-out: HIV-1 Protease % Inhib, dose 0.370 uM
[6] = read-out: HIV-1 Protease % Inhib, dose 1.100 uM
[7] = read-out: HIV-1 Protease % Inhib, dose 3.300 uM
[8] = read-out: HIV-1 Protease % Inhib, dose 10.000 uM
[9] = read-out: HIV-1 Protease % Inhib, dose 30.000 uM

SMILES | inhibition at 1.1 µM [1] [%] | inhibition at 3.3 µM [2] [%] | inhibition at 10 µM [3] [%] | inhibition at 30 µM [4] [%] | inhibition at 0.123 µM [%] | inhibition at 0.37 µM [5] [%] | inhibition at 1.1 µM [6] [%] | inhibition at 3.3 µM [7] [%] | inhibition at 10 µM [8] [%] | inhibition at 30 µM [9] [%] | inhibition at 0.37 µM (dose 0.370 uM, read-out: HIV-1 Protease % Inhib) [%]
CCC(c1cccc(NC(=O)CCN)c1)c1c(O)c2c(oc1=O)CCCCCC2 (centres unmarked) [Example 220, Propanamide, 3-amino-N-[3-[1-(5,6,7,8,9,10-hexahydro4-hydroxy-2-oxo-2H-cycloocta[b]pyran-3-yl)propyl]phenyl]-, monohydrochloride] | 25.2 | 63.6 | 94 | 101 | – | – | – | – | – | – | –
CCC(c1cccc(NS(=O)(=O)c2ccc(Cl)cc2)c1)c1c(O)c2c(oc1=O)CCCCCC2 (centres unmarked) [Example 221, Benzenesulfonamide, 4-chloro-N-[3-[1-(5,6,7,8,9,10-hexahydro-4-hydroxy-2-oxo-2H-cycloocta[b]pyran-3-yl)propyl]phenyl]-] | – | – | – | – | 79.7 | 101 | 116 | 117 | 119 | 124 | –
CCC(c1cccc(NS(=O)(=O)c2ccc(C#N)cc2)c1)c1c(O)c2c(oc1=O)CCCCCC2 (centres unmarked) [Example 222, Benzenesulfonamide, 4-cyano-N-[3-[1-(5,6,7,8,9,10-hexahydro-4-hydroxy-2-oxo-2H-cycloocta[b]pyran-3-yl)propyl]phenyl]-] | – | – | – | – | 80.4 | 94.1 | 103 | 110 | 111 | 110 | –
CCNC(=O)Nc1cccc(C(c2c(O)c3c(oc2=O)CCCCCC3)C2CC2)c1 (centres unmarked) [Example 223, N-[3-[Cyclopropyl(5,6,7,8,9,10-hexahydro-4-hydroxy-2-oxo-2H-cycloocta[b]pyran-3-yl)methyl]phenyl]-N'-ethyl-urea] | – | – | – | – | 11.1 | 31.3 | 62.3 | 85.7 | 102 | 101 | –
O=C(Nc1ccccc1)Nc1cccc(C(c2c(O)c3c(oc2=O)CCCCCC3)C2CC2)c1 (centres unmarked) [Example 224, N-[3-[Cyclopropyl(5,6,7,8,9,10-hexahydro-4-hydroxy-2-oxo-2H-cycloocta[b]pyran-3-yl)methyl]phenyl]-N'-phenyl-urea] | 42.4 | 72.3 | 83.7 | 95.3 | – | – | – | – | – | – | 10.9
O=C(Nc1cccc(C(c2c(O)c3c(oc2=O)CCCCCC3)C2CC2)c1)Oc1ccccc1 (centres unmarked) [Example 225, [3-[Cyclopropyl(5,6,7,8,9,10-hexahydro-4-hydroxy-2-oxo-2H-cycloocta[b]pyran-3-yl)methyl]phenyl]-, phenyl ester carbamic acid] | – | – | – | – | – | – | 14.9 | 47 | 77.2 | 91.7 | –
CC(C)C(c1ccccc1)c1c(O)c2c(oc1=O)CCCCCC2 (centres unmarked) [Example 227, 2H-Cycloocta[b]pyran-2-one,5,6,7,8,9,10-hexahydro-4-hydroxy-3-(2-methyl-1-phenylpropyl)-] | – | – | – | – | – | 41.7 | 81.1 | 91.1 | 90.1 | 80.9 | –
O=c1oc2c(c(O)c1C(c1cccc(NCc3ccccc3)c1)C1CC1)CCCCCC2 (centres unmarked) [Example 242, 3-[Cyclopropyl-[3-[(phenylmethyl)amino]phenyl]methyl]-5,6,7,8,9,10-hexahydro-4-hydroxy-2H-cycloocta[b]pyran-2-one] | 13.8 | 36 | 65.3 | 78.9 | – | – | – | – | – | – | –
O=c1oc2c(c(O)c1C(c1cccc(NCCc3ccccc3)c1)C1CC1)CCCCCC2 (centres unmarked) [Example 243, 3-[Cyclopropyl-[3-[(2-phenylethyl)amino]phenyl]methyl]-5,6,7,8,9, 10-hexahydro-4-hydroxy-2H-cycloocta[b]pyran-2-one] | – | 24.4 | 44.7 | 54.3 | – | – | – | – | – | – | –
O=c1oc2c(c(O)c1C(c1cccc(N(Cc3ccccc3)S(=O)(=O)c3ccccc3)c1)C1CC1)CCCCCC2 (centres unmarked) [Example 244, N-[3-[Cyclopropyl(5,6,7,8,9, 10-hexahydro-4-hydroxy-2-oxo-2H-cycloocta[b]pyran-3-yl)methyl]phenyl]-N-(phenylmethyl)-benzenesulfonamide] | – | – | 18.8 | 31.8 | – | – | – | – | – | – | –
CS(=O)(=O)N(Cc1ccccc1)c1cccc(C(c2c(O)c3c(oc2=O)CCCCCC3)C2CC2)c1 (centres unmarked) [Example 245, N-[3-[Cyclopropyl(5,6,7,8,9, 10-hexahydro-4-hydroxy-2-oxo-2H-cycloocta[b]pyran-3-yl)methyl]phenyl]-N-(phenylmethyl)-methanesulfonamide] | 10.6 | 50.9 | 59.5 | 78.6 | – | – | – | – | – | – | –
O=c1oc2c(c(O)c1C(c1cccc(N(CCc3ccccc3)S(=O)(=O)c3ccccc3)c1)C1CC1)CCCCCC2 (centres unmarked) [Example 246, N-[3-[cyclopropyl(5,6,7,8,9,10-hexahydro-4-hydroxy-2-oxo-2H-cycloocta[b]pyran-3-yl)methyl]phenyl]-N-(2-phenylethyl)-benzenesulfonamide] | – | – | 26.6 | 49.7 | – | – | – | – | – | – | –
O=c1oc2c(c(O)c1C(c1cccc(NS(=O)(=O)c3cccc4cccnc34)c1)C1CC1)CCCCCC2 (centres unmarked) [Example 263, N-[3-[Cyclopropyl(5,6,7,8,9, 10-hexahydro4-hydroxy-2-oxo-2H-cycloocta[b]pyran-3-yl)methyl]phenyl]-8-quinolinesulfonamide] | – | – | – | – | 82.9 | 89.9 | 95.7 | 98.7 | 108 | 98.3 | –
O=c1oc2c(c(O)c1C(c1cccc(NS(=O)(=O)c3ccc(Cl)cc3)c1)C1CC1)CCCCCC2 (centres unmarked) [Example 264, 4-Chloro-N-[3-[cyclopropyl(5,6,7,8,9,10-hexahydro4-hydroxy-oxo-2H-cycloocta[b]pyran-3-yl)methyl]phenyl]-benzenesulfonamide] | – | – | – | – | 78.5 | 89 | 99.8 | 104 | 108 | 109 | –
O=c1oc2c(c(O)c1C(c1cccc(NS(=O)(=O)c3ccc4ccccc4c3)c1)C1CC1)CCCCCC2 (centres unmarked) [Example 266, N-[3-[Cyclopropyl(5,6,7,8,9,10-hexahydro-4-hydroxy-2-oxo-2H-cycloocta[b]pyran-3-yl)methyl]phenyl]-2-naphthalenesulfonamide] | – | – | – | – | 79.8 | 88.4 | 104 | 100 | 105 | 103 | –
O=c1oc2c(c(O)c1C(c1cccc(NS(=O)(=O)c3ccc(C(F)(F)F)cc3)c1)C1CC1)CCCCCC2 (centres unmarked) [Example 267, N-[3-[Cyclopropyl(5,6,7,8,9,10-hexahydro-4-hydroxy-2-oxo-2H-cycloocta[b]pyran-3-yl)methyl]phenyl]-4-(trifluoromethyl)-benzenesulfonamide] | – | – | – | – | 71.5 | 83.9 | 92 | 107 | 107 | 110 | –
O=c1oc2c(c(O)c1C(c1cccc(NS(=O)(=O)c3cccc4ccccc34)c1)C1CC1)CCCCCC2 (centres unmarked) [Example 270, N-[3-[Cyclopropyl(5,6,7,8,9,10-hexahydro4-hydroxy-2-oxo-2H-cycloocta[b]pyran-3-yl)methyl]phenyl]-1-naphthalenesulfonamide] | – | – | – | – | 61.7 | 93.1 | 107 | 111 | 116 | 115 | –
O=c1oc2c(c(O)c1C(c1cccc(NS(=O)(=O)c3cc(Cl)ccc3Cl)c1)C1CC1)CCCCCC2 (centres unmarked) [Example 271, 2,5-Dichloro-N-[3-[cyclopropyl(5,6,7,8,9,10-hexahydro-4-hydroxy-2-oxo-2H-cycloocta[b]pyran-3-yl)methyl]phenyl]-benzenesulfonamide] | – | – | – | – | – | 16.7 | 47.5 | 75.3 | 88.8 | 94.2 | –
O=c1oc2c(c(O)c1C(c1cccc(NS(=O)(=O)c3ccc(Br)cc3)c1)C1CC1)CCCCCC2 (centres unmarked) [Example 272, 4-Bromo-N-[3-[cyclopropyl(5,6,7,8,9,10-hexahydro-4-hydroxy-2-oxo-2H-cycloocta[b]pyran-3-yl)methyl]phenyl]-benzenesulfonamide] | – | – | – | – | 67.1 | 85.2 | 95.3 | 96.2 | 101 | 104 | –
O=c1oc2c(c(O)c1C(c1cccc(NS(=O)(=O)c3ccc([N+](=O)[O-])cc3)c1)C1CC1)CCCCCC2 (centres unmarked) [Example 273, N-[3-[Cyclopropyl(5,6,7,8,9,10-hexahydro-4-hydroxy-4-oxo-2H-cycloocta[b]pyran-3-yl)methyl]phenyl]4-nitro-benzenesulfonamide] | – | – | – | – | 68.4 | 92.3 | 95.9 | 98.2 | 102 | 108 | –
O=c1oc2c(c(O)c1C(c1cccc(NS(=O)(=O)c3cccc([N+](=O)[O-])c3)c1)C1CC1)CCCCCC2 (centres unmarked) [Example 274, N-[3-[Cyclopropyl(5,6,7,8,9,10-hexahydro-4-hydroxy-2-oxo-2H-cycloocta[b]pyran-3-yl)methyl]phenyl]-3-nitro-benzenesulfonamide] | – | – | – | – | 70 | 88.2 | 95.8 | 98.8 | 103 | 105 | –

Source: US5686486A, “4-hydroxy-benzopyran-2-ones and 4-hydroxy-cycloalkyl[b]pyran-2-ones useful to treat retroviral infections” (priority 1995, dated 1997)
